Laboratory results: patent US20090227607A1, “DEAZAPURINES USEFUL AS INHIBITORS OF JANUS KINASES” (priority 2006, published 2009)

biological target: JAK-2 enzyme (Homo sapiens, UniProt O60674); assay: JAK2 Inhibition Assay; assay type: biochemical; conditions: 15 μM poly(Glu)4Tyr, 12 μM ATP, 25° C.
Procedure: (§1) Compounds were screened for their ability to inhibit JAK3 using the assay shown below. Reactions were carried out in a kinase buffer containing 100 mM HEPES (pH 7.4), 1 mM DTT, 10 mM MgCl2, 25 mM NaCl, and 0.01% BSA. Substrate concentrations in the assay were 5 μM ATP (200 uCi/μmole ATP) and 1 μM poly(Glu)4Tyr. Reactions were carried out at 25° C. and 1 nM JAK3.
(§2) To each well of a 96 well polycarbonate plate was added 1.5 μl of a candidate JAK3 inhibitor along with 50 μl of kinase buffer containing 2 μM poly(Glu)4Tyr and […]. This was then mixed and […] of kinase buffer containing 2 nM JAK3 enzyme was added to start the reaction. After 20 minutes at room temperature (25° C.), the reaction was stopped with 50 μl of 20% trichloroacetic acid (TCA) that also contained 0.4 mM ATP. The entire contents of each well were then transferred to a 96 well glass fiber filter plate using a TomTek Cell Harvester. After washing, 60 μl of scintillation fluid was added and ^33P incorporation detected on a Perkin Elmer TopCount.
The assays were as described above in Example 36 except that JAK-2 enzyme was used, the final poly(Glu)4Tyr concentration was 15 μM, and final ATP concentration was 12 μM.
(§3) Tables 5 and 6 depict enzyme inhibition data (Ki) for certain exemplary compounds. Compound numbers in Tables 5 and 6 correspond to those compounds depicted in Tables 1 and 2, respectively.

Sequence of JAK-2 enzyme (O60674 whole entry, species assumed): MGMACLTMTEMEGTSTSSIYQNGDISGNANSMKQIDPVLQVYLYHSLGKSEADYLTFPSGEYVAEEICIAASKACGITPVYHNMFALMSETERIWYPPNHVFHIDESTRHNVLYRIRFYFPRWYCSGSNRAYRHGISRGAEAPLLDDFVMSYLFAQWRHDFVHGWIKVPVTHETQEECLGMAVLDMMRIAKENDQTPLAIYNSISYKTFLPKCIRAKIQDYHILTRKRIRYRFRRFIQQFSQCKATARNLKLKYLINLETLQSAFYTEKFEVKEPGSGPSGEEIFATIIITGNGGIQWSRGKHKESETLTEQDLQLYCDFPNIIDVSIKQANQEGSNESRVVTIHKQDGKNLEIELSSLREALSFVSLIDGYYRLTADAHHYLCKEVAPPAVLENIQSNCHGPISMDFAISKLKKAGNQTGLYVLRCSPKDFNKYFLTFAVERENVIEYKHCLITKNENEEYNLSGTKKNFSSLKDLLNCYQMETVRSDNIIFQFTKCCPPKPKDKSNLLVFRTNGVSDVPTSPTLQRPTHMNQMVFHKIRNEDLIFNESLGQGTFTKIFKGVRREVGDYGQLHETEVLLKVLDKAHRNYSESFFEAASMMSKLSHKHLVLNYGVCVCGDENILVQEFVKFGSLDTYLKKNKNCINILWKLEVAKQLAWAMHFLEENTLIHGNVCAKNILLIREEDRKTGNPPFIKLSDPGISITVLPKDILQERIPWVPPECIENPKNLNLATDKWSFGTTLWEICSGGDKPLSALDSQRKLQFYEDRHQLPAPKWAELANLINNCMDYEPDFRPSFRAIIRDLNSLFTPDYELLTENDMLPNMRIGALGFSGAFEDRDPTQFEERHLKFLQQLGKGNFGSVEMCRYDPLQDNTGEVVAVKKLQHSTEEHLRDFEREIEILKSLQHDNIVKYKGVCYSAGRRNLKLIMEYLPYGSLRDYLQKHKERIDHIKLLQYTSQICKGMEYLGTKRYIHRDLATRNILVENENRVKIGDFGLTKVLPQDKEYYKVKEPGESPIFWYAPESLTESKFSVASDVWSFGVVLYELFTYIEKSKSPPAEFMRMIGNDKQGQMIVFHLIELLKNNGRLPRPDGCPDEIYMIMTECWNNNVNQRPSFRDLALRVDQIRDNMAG

Compound	Ki
CCN(Cc1ccccc1)C(=O)c1cc(-c2ncnc3[nH]ccc23)c[nH]1 [Compound 30]	< 100 nM
CCC(C)n1cc(-c2ncnc3[nH]ccc23)cn1 (stereo not drawn) [Compound 35]	< 100 nM
CCCC(C)n1cc(-c2ncnc3[nH]ccc23)cn1 (stereo not drawn) [Compound 38]	< 100 nM
CCN(CCO)C(=O)c1cc(-c2ncnc3[nH]ccc23)c[nH]1 [Compound 40]	< 100 nM
O=C(c1cc(-c2ncnc3[nH]ccc23)c[nH]1)N1CCCC1CO (stereo not drawn) [Compound 41]	100 to 500 nM
O=C(c1cc(-c2ncnc3[nH]ccc23)c[nH]1)N1CCC(CO)CC1 [Compound 42]	100 to 500 nM
CN(CCc1ccccn1)C(=O)c1cc(-c2ncnc3[nH]ccc23)c[nH]1 [Compound 46]	100 to 500 nM
CCN(Cc1ccncc1)C(=O)c1cc(-c2ncnc3[nH]ccc23)c[nH]1 [Compound 48]	< 100 nM
O=C(c1cc(-c2ncnc3[nH]ccc23)c[nH]1)N1CCCC(O)C1 (stereo not drawn) [Compound 51]	100 to 500 nM
N#CC1CCCN1C(=O)c1cc(-c2ncnc3[nH]ccc23)c[nH]1 (stereo not drawn) [Compound 52]	< 100 nM
O=C(c1cc(-c2ncnc3[nH]ccc23)c[nH]1)N1CCCC1C(F)(F)F (stereo not drawn) [Compound 53]	< 100 nM
CC(C(=O)OC(C)(C)C)n1cc(-c2ncnc3[nH]ccc23)cn1 (stereo not drawn) [Compound 95]	100 to 500 nM

Second part, the compound after the results:

Ki	Compound
< 100 nM	CC(C)CC(=O)Nc1nc(-c2ncnc3[nH]ccc23)cs1 [Compound 31]
< 100 nM	O=C(CC1CCCC1)Nc1nc(-c2ncnc3[nH]ccc23)cs1 [Compound 32]
< 100 nM	CC(C)n1cc(-c2ncnc3[nH]ccc23)cn1 [Compound 34]
< 100 nM	c1nc(-c2cnn(C3CCCC3)c2)c2cc[nH]c2n1 [Compound 36]
< 100 nM	CCCC(CCC)n1cc(-c2ncnc3[nH]ccc23)cn1 [Compound 37]
< 100 nM	CCC(CC)n1cc(-c2ncnc3[nH]ccc23)cn1 [Compound 39]
500 to 5000 nM	CCOC(=O)C1CCN(C(=O)c2cc(-c3ncnc4[nH]ccc34)c[nH]2)CC1 [Compound 43]
500 to 5000 nM	CN(C)CCCN(C)C(=O)c1cc(-c2ncnc3[nH]ccc23)c[nH]1 [Compound 44]
500 to 5000 nM	O=C(c1cc(-c2ncnc3[nH]ccc23)c[nH]1)N1CCC(O)C1 (stereo not drawn) [Compound 45]
100 to 500 nM	NC(=O)C1CCCN1C(=O)c1cc(-c2ncnc3[nH]ccc23)c[nH]1 (stereo not drawn) [Compound 47]
< 100 nM	CN(Cc1cccnc1)C(=O)c1cc(-c2ncnc3[nH]ccc23)c[nH]1 [Compound 49]
500 to 5000 nM	CN(C)C1CCN(C(=O)c2cc(-c3ncnc4[nH]ccc34)c[nH]2)C1 (stereo not drawn) [Compound 50]
< 100 nM	CC1CCC(C)N1C(=O)c1cc(-c2ncnc3[nH]ccc23)c[nH]1 (stereo not drawn) [Compound 54]
< 100 nM	CN(CC(F)(F)F)C(=O)c1cc(-c2ncnc3[nH]ccc23)c[nH]1 [Compound 55]
100 to 500 nM	O=C(c1cc(-c2ncnc3[nH]ccc23)c[nH]1)N1CCC(O)C1 (stereo not drawn) [Compound 56]

biological target: T1, JAK3 (Homo sapiens, UniProt P52333); assay: JAK3 Inhibition Assay; assay type: biochemical; conditions: 1 μM poly(Glu)4Tyr, 5 μM ATP, 1 nM JAK3, 25° C.; read-out: JAK3 enzyme inhibition data (Ki)
T1 sequence (P52333 1-1124): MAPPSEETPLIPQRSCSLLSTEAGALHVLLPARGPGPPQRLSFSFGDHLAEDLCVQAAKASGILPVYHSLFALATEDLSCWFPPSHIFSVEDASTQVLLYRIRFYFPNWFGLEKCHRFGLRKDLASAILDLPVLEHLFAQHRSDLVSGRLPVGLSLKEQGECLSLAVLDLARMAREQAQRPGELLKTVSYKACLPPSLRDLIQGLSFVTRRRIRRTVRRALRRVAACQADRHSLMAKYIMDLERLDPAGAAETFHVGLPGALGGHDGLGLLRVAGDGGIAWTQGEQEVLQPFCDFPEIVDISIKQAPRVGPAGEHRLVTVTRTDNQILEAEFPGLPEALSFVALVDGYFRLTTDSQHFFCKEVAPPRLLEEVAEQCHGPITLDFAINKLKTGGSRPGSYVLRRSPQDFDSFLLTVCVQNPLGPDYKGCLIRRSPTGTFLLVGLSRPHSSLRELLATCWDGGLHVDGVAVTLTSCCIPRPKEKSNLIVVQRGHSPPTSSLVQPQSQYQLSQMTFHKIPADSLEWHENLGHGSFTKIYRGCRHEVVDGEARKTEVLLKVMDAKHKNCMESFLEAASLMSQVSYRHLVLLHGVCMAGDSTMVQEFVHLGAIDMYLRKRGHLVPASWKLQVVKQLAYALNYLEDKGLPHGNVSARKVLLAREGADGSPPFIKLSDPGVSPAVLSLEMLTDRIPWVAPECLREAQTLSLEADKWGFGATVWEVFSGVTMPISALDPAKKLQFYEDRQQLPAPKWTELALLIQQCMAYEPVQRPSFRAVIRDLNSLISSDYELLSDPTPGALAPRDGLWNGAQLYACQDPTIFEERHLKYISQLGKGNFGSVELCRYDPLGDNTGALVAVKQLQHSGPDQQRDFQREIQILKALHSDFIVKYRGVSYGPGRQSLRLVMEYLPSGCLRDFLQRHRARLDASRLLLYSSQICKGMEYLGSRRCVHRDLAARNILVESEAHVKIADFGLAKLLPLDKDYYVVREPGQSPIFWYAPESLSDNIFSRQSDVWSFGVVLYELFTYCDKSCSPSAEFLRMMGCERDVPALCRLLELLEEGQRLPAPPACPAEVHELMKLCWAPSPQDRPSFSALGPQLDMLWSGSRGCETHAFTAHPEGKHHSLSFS
Procedure: as §1, §2, §3

Compound	Ki
CCN(Cc1ccccc1)C(=O)c1cc(-c2ncnc3[nH]ccc23)c[nH]1 [Compound 30]	< 100 nM
CCC(C)n1cc(-c2ncnc3[nH]ccc23)cn1 (stereo not drawn) [Compound 35]	< 100 nM
CCCC(C)n1cc(-c2ncnc3[nH]ccc23)cn1 (stereo not drawn) [Compound 38]	< 100 nM
CCN(CCO)C(=O)c1cc(-c2ncnc3[nH]ccc23)c[nH]1 [Compound 40]	100 to 500 nM
O=C(c1cc(-c2ncnc3[nH]ccc23)c[nH]1)N1CCCC1CO (stereo not drawn) [Compound 41]	500 to 5000 nM
O=C(c1cc(-c2ncnc3[nH]ccc23)c[nH]1)N1CCC(CO)CC1 [Compound 42]	500 to 5000 nM
CN(CCc1ccccn1)C(=O)c1cc(-c2ncnc3[nH]ccc23)c[nH]1 [Compound 46]	100 to 500 nM
CCN(Cc1ccncc1)C(=O)c1cc(-c2ncnc3[nH]ccc23)c[nH]1 [Compound 48]	< 100 nM
O=C(c1cc(-c2ncnc3[nH]ccc23)c[nH]1)N1CCCC(O)C1 (stereo not drawn) [Compound 51]	500 to 5000 nM
N#CC1CCCN1C(=O)c1cc(-c2ncnc3[nH]ccc23)c[nH]1 (stereo not drawn) [Compound 52]	100 to 500 nM
O=C(c1cc(-c2ncnc3[nH]ccc23)c[nH]1)N1CCCC1C(F)(F)F (stereo not drawn) [Compound 53]	100 to 500 nM

Now from value to compound:

Ki	Compound
< 100 nM	O=C(N[C@H](CO)c1cccc(Cl)c1)c1cc(-c2ncnc3[nH]ccc23)c[nH]1 [Compound 1]
< 100 nM	CC(C)CC(=O)Nc1nc(-c2ncnc3[nH]ccc23)cs1 [Compound 31]
< 100 nM	O=C(CC1CCCC1)Nc1nc(-c2ncnc3[nH]ccc23)cs1 [Compound 32]
< 100 nM	CC(C)n1cc(-c2ncnc3[nH]ccc23)cn1 [Compound 34]
< 100 nM	c1nc(-c2cnn(C3CCCC3)c2)c2cc[nH]c2n1 [Compound 36]
< 100 nM	CCCC(CCC)n1cc(-c2ncnc3[nH]ccc23)cn1 [Compound 37]
< 100 nM	CCC(CC)n1cc(-c2ncnc3[nH]ccc23)cn1 [Compound 39]
500 to 5000 nM	CCOC(=O)C1CCN(C(=O)c2cc(-c3ncnc4[nH]ccc34)c[nH]2)CC1 [Compound 43]
500 to 5000 nM	CN(C)CCCN(C)C(=O)c1cc(-c2ncnc3[nH]ccc23)c[nH]1 [Compound 44]
500 to 5000 nM	O=C(c1cc(-c2ncnc3[nH]ccc23)c[nH]1)N1CCC(O)C1 (stereo not drawn) [Compound 45]
100 to 500 nM	NC(=O)C1CCCN1C(=O)c1cc(-c2ncnc3[nH]ccc23)c[nH]1 (stereo not drawn) [Compound 47]
100 to 500 nM	CN(Cc1cccnc1)C(=O)c1cc(-c2ncnc3[nH]ccc23)c[nH]1 [Compound 49]
500 to 5000 nM	CN(C)C1CCN(C(=O)c2cc(-c3ncnc4[nH]ccc34)c[nH]2)C1 (stereo not drawn) [Compound 50]
< 100 nM	CC1CCC(C)N1C(=O)c1cc(-c2ncnc3[nH]ccc23)c[nH]1 (stereo not drawn) [Compound 54]
100 to 500 nM	CN(CC(F)(F)F)C(=O)c1cc(-c2ncnc3[nH]ccc23)c[nH]1 [Compound 55]
500 to 5000 nM	O=C(c1cc(-c2ncnc3[nH]ccc23)c[nH]1)N1CCC(O)C1 (stereo not drawn) [Compound 56]
